Tests used:
[1] = Cytotoxicity against human L02 cells assessed as cell growth inhibition incubated for 72 hrs by Cell Titer-Glo assay
[2] = Selectivity index, ratio of IC50 for human L02 cells to IC50 for human MV4-11 cells; settings: L02 cells and MV4-11 cells
[3] = system: MV4-11; experiment: Cytotoxicity against human MV4-11 cells assessed as cell growth inhibition incubated for 72 hrs by Cell Titer-Glo assay; format: functional, cell-based; settings: MV4-11, 72 h
[4] = system: MV4-11; experiment: Induction of apoptosis in human MV4-11 cells assessed as viable cells at 0.1 uM incubated for 24 hrs by Annexin V-FITC/PI staining based flow cytometry (reference value: 98.58 to 99.04%); format: functional; settings: read-out: Activity
[5] = system: MV4-11; experiment: Downregulation of FLT-3 protein expression in human MV4-11 cells incubated for 24 hrs by Western blot analysis; format: functional, cell-based; settings: dose 100-400 nM
[6] = system: MV4-11; experiment: Induction of apoptosis in human MV4-11 cells assessed as necrotic cells at 0.1 uM incubated for 24 hrs by Annexin V-FITC/PI staining based flow cytometry (reference value: 0.05 to 0.24 %); format: functional
[7] = system: MV4-11; experiment: Induction of apoptosis in human MV4-11 cells assessed as late apoptotic cells at 0.1 uM incubated for 24 hrs by Annexin V-FITC/PI staining based flow cytometry (reference value: 0.53 to 1.03 %); format: functional
[8] = system: MV4-11; experiment: Induction of cell cycle arrest in human MV4-11 cells assessed as accumulation of cells at G0/G1 phase at 0.1 uM incubated for 24 hrs by PI staining based flow cytometry (reference value: 57.44 %); format: functional
[9] = system: MV4-11; experiment: Induction of apoptosis in human MV4-11 cells assessed as early apoptotic cells at 0.1 uM incubated for 24 hrs by Annexin V-FITC/PI staining based flow cytometry (reference value: 0.015 to 0.39 %); format: functional
[10] = system: MV4-11; experiment: Induction of cell cycle arrest in human MV4-11 cells assessed as accumulation of cells at G2/M phase at 0.1 uM incubated for 24 hrs by PI staining based flow cytometry (reference value: 18.56 %); format: functional
[11] = system: MV4-11; experiment: Induction of cell cycle arrest in human MV4-11 cells assessed as accumulation of cells at S phase at 0.1 uM incubated for 24 hrs by PI staining based flow cytometry (reference value: 27.58 %); format: functional

Row | Compound | IC50 at 72 h [1] [µM] | selectivity ratio [2] | IC50 [3] [nM] | viability at 0.1 µM [4] [%] | Activity [5] | Activity [6] [%] | Activity [7] [%] | Activity [8] [%] | Activity [9] [%] | Activity [10] [%] | Activity [11] [%]
1 | COc1ccc2[nH]cc(-c3c(OC)c(OC)c(-c4c[nH]c5ccc(O)cc45)c(OC)c3OC)c2c1 | > 100 | > 75 | 1300 |  |  |  |  |  |  |  | 
2 | COc1ccc2[nH]cc(-c3c(OC)c(OC)c(-c4c[nH]c5ccccc45)c(OC)c3OC)c2c1 | > 100 | > 15 | 6500 |  |  |  |  |  |  |  | 
3 | COc1c(OC)c(-c2c[nH]c3ccc(OCCN4CCOCC4)cc23)c(OC)c(OC)c1-c1c[nH]c2ccccc12 | > 100 | > 220 | 450 |  |  |  |  |  |  |  | 
4 | COc1c(OC)c(-c2c[nH]c3ccc(O)cc23)c(OC)c(OC)c1-c1c[nH]c2ccccc12 | > 100 | > 8 | 12000 |  |  |  |  |  |  |  | 
5 | COc1c(OC)c(-c2cn(CCN3CCOCC3)c3ccccc23)c(OC)c(OC)c1-c1c[nH]c2ccccc12 | > 100 | > 210 | 480 |  |  |  |  |  |  |  | 
6 | CCOc1ccc2[nH]cc(-c3c(OC)c(OC)c(-c4c[nH]c5ccccc45)c(OC)c3OC)c2c1 | > 100 | > 500 | 200 |  |  |  |  |  |  |  | 
7 | COc1c(OC)c(-c2c[nH]c3ccc(OCC(=O)c4ccccc4)cc23)c(OC)c(OC)c1-c1c[nH]c2ccccc12 | > 100 | > 74 | 1300 |  |  |  |  |  |  |  | 
8 | COc1c(OC)c(-c2c[nH]c3ccccc23)c(OC)c(OC)c1-c1c[nH]c2ccccc12 | > 100 | > 17 | 5900 |  |  |  |  |  |  |  | 
9 | COc1c(O)c(-c2c[nH]c3ccccc23)c(CC=C(C)C)c(OC)c1-c1c[nH]c2ccccc12 | 17 | 9 | 1800 |  |  |  |  |  |  |  | 
10 | COc1c(O)c(-c2c[nH]c3ccccc23)c2c(c1-c1c[nH]c3ccccc13)OC(C)(C)C=C2 | 11 | 9 | 1200 |  |  |  |  |  |  |  | 
11 | COc1c(OC)c(-c2c[nH]c3ccc(OC4CCCC4)cc23)c(OC)c(OC)c1-c1c[nH]c2ccccc12 | > 100 | > 710 | 140 | 74.7 | Dose-Dependent Effect | 0 | 4.36 | 49.99 | 19.09 | 15.55 | 36.06
12 | COc1c(OC)c(-c2c[nH]c3ccc(OCC(=O)c4ccc(Cl)c(Cl)c4)cc23)c(OC)c(OC)c1-c1c[nH]c2ccccc12 | > 100 | > 100 | 990 |  |  |  |  |  |  |  | 
13 | COc1c(OC)c(-c2c[nH]c3ccc(OCCO[C@@H]4O[C@H](CO)[C@@H](O)[C@H](O)[C@H]4O)cc23)c(OC)c(OC)c1-c1c[nH]c2ccccc12 | > 100 | > 380 | 260 | 78 | Dose-Dependent Effect | 0 | 3.67 | 52.91 | 15.78 | 17.42 | 30.68
14 | COc1c(OC)c(-c2cn(C3CCCC3)c3ccccc23)c(OC)c(OC)c1-c1c[nH]c2ccccc12 | > 100 | > 120 | 840 |  |  |  |  |  |  |  | 

Source: ChEMBL document CHEMBL5370636, “Asteriquinones from Aspergillus sp. GZWMJZ-258 and Their Derivatives” (J Nat Prod, 2023)
